These results are taken from patent US11214803B2, “Modulators of YAP1 expression” (Ionis Pharmaceuticals, Inc., priority 2019, dated 2022).

Strand notation (5' to 3'): a small letter for the sugar, then the base; units joined by * are phosphorothioate-linked, units joined directly phosphodiester-linked; [ ] holds rarer units or linkages, { } end groups; capitals alone tell only the bases. k = constrained ethyl (cEt); [5mC] = 5-methylcytosine; d = 2'-deoxy (DNA)

The subject of the series is Yap1 mRNA. Kind of series: Antisense inhibition of human Yap1 in A-431 cells by cEt gapmers, single dose (Example 2, RTS4814). Format: cell-based. As for the experimental part:
Modified oligonucleotides were designed to target a Yap1 nucleic acid and were tested for their effect on Yap1 mRNA level in vitro. The modified oligonucleotides were tested in a series of experiments that had similar culture conditions. Cultured A-431 cells at a density of 5,000 cells per well were treated using free uptake with 2,000 nM of modified oligonucleotide. After a treatment period of approximately 48 hours, RNA was isolated from the cells and Yap1 mRNA levels were measured by quantitative real-time RTPCR. Human primer probe set RTS4814 was used to measure mRNA levels. Yap1 mRNA levels were normalized to total RNA content, as measured by RIBOGREEN®. Results are presented in the tables below as percent control of the amount of Yap1 mRNA relative to untreated control cells (% UTC). The modified oligonucleotides with percent control values marked with an asterisk (*) target the amplicon region of the primer probe set. Additional assays may be used to measure the potency and efficacy of the modified oligonucleotides targeting the amplicon region.
The newly designed modified oligonucleotides in the Tables below were designed as 3-10-3 cEt gapmers. The gapmers are 16 nucleosides in length, wherein the central gap segment comprises of ten 2′-deoxynucleosides and is flanked by wing segments on the 5′ direction and the 3′ direction comprising three nucleosides each. Each nucleoside in the 5′ wing segment and each nucleoside in the 3′ wing segment has a cEt sugar modification. The internucleoside linkages throughout each gapmer are phosphorothioate (P═S) linkages. All cytosine residues throughout each gapmer are 5-methylcytosines.
“Start site” indicates the 5′-most nucleoside to which the gapmer is targeted in the human gene sequence. “Stop site” indicates the 3′-most nucleoside to which the gapmer is targeted human gene sequence. […] Activity ofthe modified oligonucleotide may be defined in a different experiment.

[1] abbreviates: Table 22, Yap1 mRNA as percent of untreated control, 3-10-3 cEt gapmers, single dose.
Where [2] appears, read: Table 23, Yap1 mRNA as percent of untreated control, 3-10-3 cEt gapmers, single dose.
The mark [3] stands for this setting: Yap1 mRNA as percent of untreated control, A-431 cells, 3-10-3 cEt gapmers targeting SEQ ID NO.: 1, and 2, Table 31.
[4] abbreviates: Table 25, Yap1 mRNA as percent of untreated control, 3-10-3 cEt gapmers targeting SEQ ID NO.: 1, and 2.
[5] abbreviates: Table 18, A-431 cells, 5,000 cells per well, free uptake, 2,000 nM modified oligonucleotide, approx. 48 hours, RTS4814, normalized to RIBOGREEN, Yap1 mRNA as percent of untreated control.
[6] abbreviates: Table 20, Yap1 mRNA, percent of untreated control, 3-10-3 cEt gapmers targeting SEQ ID NO.: 1 and 2.
The mark [7] stands for this setting: Table 21, Yap1 mRNA, percent of untreated control, 3-10-3 cEt gapmers targeting SEQ ID NO.: 1 and 2.
The mark [8] stands for this setting: Table 32, Yap1 mRNA, percent of untreated control, 3-10-3 cEt gapmers targeting SEQ ID NO.: 1, and 2.
The mark [9] stands for this setting: Table 6, A-431 cells, 5,000 cells per well, free uptake, 2,000 nM modified oligonucleotide, approx. 48 hours, RTS4814, normalized to RIBOGREEN, Yap1 mRNA relative to untreated control cells.
Where [10] appears, read: Yap1 mRNA as percent of untreated control, A-431 cells, 3-10-3 cEt gapmers targeting SEQ ID NO.: 1, and 2, Table 30.
[11] abbreviates: Table 33, Yap1 mRNA, percent of untreated control, 3-10-3 cEt gapmers targeting SEQ ID NO.: 1, and 2.
[12] abbreviates: Table 5, A-431 cells, 5,000 cells per well, free uptake, 2,000 nM modified oligonucleotide, approx. 48 hours, RTS4814, normalized to RIBOGREEN, Yap1 mRNA relative to untreated control cells.

In the case of “1074696 (antisense kG*kT*k[5mC]*d[5mC]*d[5mC]*d[5mC]*d[5mC]*dT*dA*dA*dA*dT*d[5mC]*kT*kT*k[5mC]) [Compound 1074696]”, the “YAP1 (% UTC)” value under setting [1] is given as 38 % UTC.
As for “1074217 (antisense kG*kG*kA*dT*dT*dT*dG*dG*dG*d[5mC]*dT*d[5mC]*d[5mC]*kG*kG*k[5mC]) [Compound 1074217]”, the “YAP1 (% UTC)” value under setting [2] came out at 74 % UTC.
With “1075338 (k[5mC]*k[5mC]*k[5mC]*dA*dA*dA*dA*dA*d[5mC]*dT*dA*dG*d[5mC]*kT*kT*kA; antisense) [Compound 1075338]”, the “YAP1 (% UTC)” value (Table 24, Yap1 mRNA as percent of untreated control, 3-10-3 cEt gapmers targeting SEQ ID NO.: 1, and 2) came out at 56 % UTC.
“1074225 (antisense k[5mC]*k[5mC]*kA*dG*dA*dG*dA*d[5mC]*dT*dA*d[5mC]*dT*d[5mC]*k[5mC]*kA*kG) [compound 1074225]”: the “YAP1 (% UTC)” value under setting [3] is 11 % UTC.
Take “1076008 (kA*kG*k[5mC]*dG*dA*dA*dA*dA*dT*dA*dA*d[5mC]*dA*kT*kT*kA; antisense) [Compound 1076008]”: the “YAP1 (% UTC)” value under setting [1] is recorded as 33 % UTC.
For the substance “1074603 (antisense kT*kT*k[5mC]*d[5mC]*dA*dG*d[5mC]*dT*dA*dA*d[5mC]*dT*d[5mC]*kA*kA*kA) [Compound 1074603]”, under setting [4], the “YAP1 (% UTC)” value is on record as 17 % UTC.
As to “1075620 (kG*kA*kT*dG*dA*dA*dG*dA*dA*dT*d[5mC]*dT*dA*kT*kA*kG; antisense) [Compound 1075620]”, the “YAP1 (% UTC)” value under setting [5] turned out to be 88 % UTC.
For “1075016 (antisense kT*k[5mC]*kA*dG*dA*dA*dT*dA*dA*dG*dT*dA*dT*kG*kA*kT) [Compound 1075016]”, the “YAP1 (% UTC)” value under setting [1] is recorded as 100 % UTC.
Take “1075883 (kA*k[5mC]*kT*dA*dA*dA*dA*d[5mC]*d[5mC]*dA*dT*dT*dT*kG*k[5mC]*k[5mC]; antisense) [Compound 1075883]”: the “YAP1 (% UTC)” value under setting [4] is recorded as 20 % UTC.
On to “1076486 (antisense kG*kA*kA*dA*d[5mC]*dG*dA*dA*dA*d[5mC]*dG*dG*dG*kA*kA*kA) [Compound 1076486]”, for which, under setting [6], the “YAP1 (% UTC)” value is reported as 5 % UTC.
As to “1076135 (k[5mC]*kA*kT*dA*dA*dT*dT*dG*dA*d[5mC]*dA*dG*dG*kT*kA*kT; antisense) [Compound 1076135]”, the “YAP1 (% UTC)” value under setting [7] was 14 % UTC.
As for “1075058 (antisense kA*kT*kT*dA*d[5mC]*dA*dA*dA*dG*dT*dA*dG*d[5mC]*kA*kA*k[5mC]) [compound 1075058]”, the “YAP1 (% UTC)” value under setting [8] is given as 66 % UTC.
On the same count and under the same terms, the figure for “1074994 (antisense kA*kA*kA*d[5mC]*dT*dA*dA*dA*dT*dG*dG*dA*d[5mC]*k[5mC]*kG*kG) [compound 1074994]” is 94 % UTC.
Take “716510 (antisense k[5mC]*kA*kA*d[5mC]*dA*dT*dG*d[5mC]*dT*dA*dT*dG*dT*kA*kA*kT) [Compound 716510]”: the “YAP1 (% UTC)” value under setting [9] came to 122 % UTC.
Turning to “1075879 (kG*kA*kA*dT*dA*dA*dA*dG*dA*dA*dG*dT*d[5mC]*kA*k[5mC]*k[5mC]; antisense) [Compound 1075879]”, the “YAP1 (% UTC)” value under setting [7] came to 77 % UTC.
Regarding “1075339 (kA*k[5mC]*k[5mC]*d[5mC]*dA*dA*dA*dA*dA*d[5mC]*dT*dA*dG*k[5mC]*kT*kT; antisense) [Compound 1075339]”, under setting [4], the “YAP1 (% UTC)” value is reported as 70 % UTC.
As to “1075561 (kG*kT*kA*dA*dG*dT*dA*dA*dG*dG*dG*dA*dA*k[5mC]*k[5mC]*k[5mC]; antisense) [Compound 1075561]”, the “YAP1 (% UTC)” value under setting [2] is recorded as 32 % UTC.
On to “716363 (k[5mC]*kG*kG*dA*d[5mC]*dG*dG*d[5mC]*dG*dG*dG*d[5mC]*d[5mC]*k[5mC]*kT*kG; antisense) [Compound 716363]”, for which the “YAP1 (% UTC)” value under setting [9] is 103 % UTC.
Take “1074256 (antisense k[5mC]*kA*k[5mC]*dT*dG*dG*dT*dG*dG*dA*d[5mC]*dT*dG*kG*kT*kG) [compound 1074256]”: under setting [10], the “YAP1 (% UTC)” value came to 64 % UTC.
Take “1075377 (antisense k[5mC]*kT*kA*dG*dA*dA*dA*dG*dG*dT*dT*dG*dG*k[5mC]*k[5mC]*k[5mC]) [compound 1075377]”: the “YAP1 (% UTC)” value under setting [3] is recorded as 108 % UTC.
Consider “1074185 (antisense kG*kG*k[5mC]*d[5mC]*dG*dG*dT*dT*dG*dA*dG*dG*d[5mC]*kG*kG*k[5mC]) [Compound 1074185]”, for which, under setting [2], the “YAP1 (% UTC)” value was determined as 91 % UTC.
For “1074664 (antisense kG*k[5mC]*kA*dT*dT*d[5mC]*dT*dA*dG*dG*dT*dA*dG*kA*kA*kT) [Compound 1074664]”, the “YAP1 (% UTC)” value under setting [1] amounted to 49 % UTC.
As to “716354 (kT*k[5mC]*kG*d[5mC]*dT*d[5mC]*dT*d[5mC]*dA*dG*dG*dG*d[5mC]*k[5mC]*kG*kG; antisense) [Compound 716354]”, the “YAP1 (% UTC)” value under setting [9] amounted to 114 % UTC.
“1076107 (k[5mC]*kA*kT*dT*dA*d[5mC]*d[5mC]*dA*dA*d[5mC]*dT*dT*d[5mC]*kT*kT*k[5mC]; antisense) [Compound 1076107]”: under setting [4], the “YAP1 (% UTC)” value came out at 23 % UTC.
“716574 (kT*kA*k[5mC]*dA*d[5mC]*dT*dG*dT*dA*dT*dA*dT*dG*kT*kT*k[5mC]; antisense) [Compound 716574]”: under “A-431 cells, 5,000 cells per well, free uptake, 2,000 nM modified oligonucleotide, approx. 48 hours, RTS4814, normalized to RIBOGREEN, Table 4, asterisk (*) = targets amplicon region of primer probe set”, the “YAP1 (% UTC)” value was determined as 91 % UTC.
On to “716369 (k[5mC]*kG*kG*d[5mC]*dG*dG*d[5mC]*dT*dT*dG*dA*dA*dG*kA*kA*kG; antisense) [Compound 716369]”, for which the “YAP1 (% UTC)” value under setting [9] stood at 94 % UTC.
Turning to “1074985 (antisense kA*kA*kT*d[5mC]*dA*d[5mC]*d[5mC]*dT*dT*dT*dT*dA*dT*kT*kG*k[5mC]) [Compound 1074985]”, the “YAP1 (% UTC)” value under setting [2] is on record as 49 % UTC.
Regarding “1075923 (antisense kT*kT*kT*dA*dA*dT*dA*d[5mC]*dT*d[5mC]*dT*d[5mC]*dT*kG*kG*kG) [compound 1075923]”, under setting [11], the “YAP1 (% UTC)” value was 42 % UTC.
“1074320 (antisense kG*kG*k[5mC]*dT*dA*dA*d[5mC]*dT*d[5mC]*d[5mC]*dT*dG*dA*k[5mC]*kA*kT) [compound 1074320]”: the “YAP1 (% UTC)” value under setting [10] is on record as 80 % UTC.
Take “716491 (k[5mC]*kT*kG*dG*dT*dG*d[5mC]*d[5mC]*dA*d[5mC]*dT*dT*dT*kA*kA*kT; antisense) [Compound 716491]”: the “YAP1 (% UTC)” value under setting [12] was found to be 54 % UTC.
On to “1076499 (kG*k[5mC]*kT*dA*dA*dT*dA*dT*dA*dT*d[5mC]*d[5mC]*dA*kA*kT*kT; antisense) [compound 1076499]”, for which the “YAP1 (% UTC)” value under setting [11] was determined as 37 % UTC.
In the case of “716512 (antisense kA*k[5mC]*kT*d[5mC]*d[5mC]*dT*dT*d[5mC]*d[5mC]*dA*dA*dG*dT*kA*kG*k[5mC]) [Compound 716512]”, the “YAP1 (% UTC)” value under setting [12] is on record as 99 % UTC.
For the substance “1074374 (antisense kT*kG*k[5mC]*dT*dT*dT*dG*dG*dT*dT*dG*dA*dT*kA*kG*kT) [Compound 1074374]”, the “YAP1 (% UTC)” value under setting [6] is 13 % UTC.
Take “1074948 (antisense kG*kA*kG*dT*dT*d[5mC]*d[5mC]*dA*dA*dA*dA*d[5mC]*d[5mC]*k[5mC]*kT*kT) [Compound 1074948]”: the “YAP1 (% UTC)” value under setting [5] came to 61 % UTC.
On the same count and under the same terms, the figure for “1074372 (antisense k[5mC]*kT*kT*dT*dG*dG*dT*dT*dG*dA*dT*dA*dG*kT*kA*kT) [Compound 1074372]” is 10 % UTC.
Take “1076432 (k[5mC]*kA*kT*dT*dA*dG*dT*dA*dT*dT*d[5mC]*dA*d[5mC]*kT*kG*kT; antisense) [compound 1076432]”: under setting [10], the “YAP1 (% UTC)” value is 18 % UTC.
Consider “1075723 (kT*kT*kA*dT*d[5mC]*d[5mC]*dT*dA*dT*d[5mC]*d[5mC]*d[5mC]*dT*kG*kG*kT; antisense) [Compound 1075723]”, for which the “YAP1 (% UTC)” value under setting [4] was 32 % UTC.
Take “1075920 (antisense kA*kA*kA*dG*dA*dA*dA*dG*d[5mC]*dT*dG*d[5mC]*dG*k[5mC]*kA*k[5mC]) [compound 1075920]”: the “YAP1 (% UTC)” value under setting [10] is reported as 108 % UTC.
